Laboratory results as given in US7745450B2, “Pyrazolo[4,3-d]pyrimidines, processes for their preparation and methods for therapy” (Institute of Experimental Botany, priority 2002, dated 2010).
Read-outs that look alike come from different tables or passages of the source.

Tests used:
[1] = tested on: myeloid leukemia KG1 cell line; experiment: Cell proliferation of KG1, flow cytometric cell count; assay type: cell-based, human; settings: 96 hours; for IC50: read-out: KG1 IC50
Procedure: (§1) Cell lines: Human leukemic cell lines were obtained from the American Type Culture Collection (ATCC, Rockville, Md., USA). They were cultured in Iscove's Modified Dulbecco's Medium (IMDM) supplemented with 10% heat inactivated fetal calf serum (FCS), 200 U/ml penicillin, 200 μg/ml streptomycin and 1 μg/ml amphotericin B. Cells were cultured in a 5% CO2-95% air fully humidified incubator. For effects on clonogenic output, 1000 cells/well were plated in duplicate in methylcellulose (0.9%), supplemented with 20% FCS for 14 days.
(§2) Cells were plated at 10000 per well in 200 μl IMDM medium and incubated with 0-50 μM of the novel compounds (Tab 8), by addition of drug directly to the culture medium and incubated at 37° C. for 96 hours (Tab 8). Absolute cell number was determined by addition of a known concentration Fluoresbrite microspheres (FITC) (Polysciences, Inc.). The absolute number of cells/well was calculated as: {(total number of beads added/well)/(number of beads measured)×(number of measured cells in the gate of interest)}. All analyses were performed with a FACScan (BD), using CELLQuest software (Becton Dickinson).
(§3) Response of the myeloid leukemia KG1 and T-lymphocyte leukemia Molt3 cell lines to the cytostatic effect of the novel compounds was determined using the above-mentioned standardized bead suspension that was used to determine the absolute cell number by flow cytometric (FCM) measurement. Cells were grown in the presence of increasing concentration of the novel compounds.
To determine reversibility of the effects of the novel compounds, cells were plated at 10000 per well and exposed to 0-50 μM of the compounds for the time indicated, followed by washing in phosphate-buffered saline (PBS) (Life Technologies) and reseeded into drug-free medium for 7 additional days. An identical set of cells was plated and exposed to the drugs for 7 additional days. After 7 days (168 hours), the relative cell number was assayed by flow cytometry.

[2] = tested on: PHA-stimulated lymphocytes (PBMC); experiment: Proliferation of PHA-stimulated lymphocytes (PBMC), flow cytometric cell count; assay type: cell-based, human; settings: 96 hours, IL-2
Procedure: Peripheral blood mononuclear cells (PBMC): Human peripheral blood mononuclear cells were isolated by density gradient (Ficoll-Hypaque) (LSM, ICN Biomedicals Inc.). PBMC were stimulated with 5 μg/ml phytohemaglutinin A (PHA) (Sigma) during 24-48 hours in IMDM supplemented with 10% FCS at 37° C. After washing off the PHA, PBMC were incubated with interleukin-2 (IL-2) (10 U/ml) (Genzyme).
as §2
PHA-stimulated lymphocytes (PBMC) were tested for their cytotoxicity as one of the normal counterparts of the cell lines. Cells were grown for 96 hours in the presence of IL-2 and different concentrations of the novel compounds and cell number was counted on the flow cytometer.

[3] = tested on: T-lymphocyte leukemia Molt3 cell line; experiment: Cell proliferation of Molt3, flow cytometric cell count; assay type: cell-based, human; settings: 96 hours
Procedure: as §1, §2, §3

cdk1/cyclin B (CDC2) = cdk1/cyclin B (CDC2) (Homo sapiens, UniProt P06493); experiment: CDK inhibition assay, cdk1/cyclin B (CDC2) kinase, histone phosphorylation; assay type: biochemical
Summary of the method: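 Radiometric endpoint kinase assay under linear conditions: histone (1 mg/ml) phosphorylated with 15 μM ATP and [γ-32P]ATP in 50 mM HEPES pH 7.4, 10 mM MgCl2, 1 mM DTT. IC50 obtained graphically from dose-response curves of % maximal activity, read by imaging analyzer.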

β-adrenergic receptors = experiment: Modulation of isoproterenol-induced cAMP synthesis in rat C6 glioma; assay type: cell-based; settings: cAMP synthesis induced by 5 μM (−) isoproterenol; for IC50: read-out: I50
Procedure: Mechanism of action of novel compounds is presented on FIG. 3. Rat C6 glioma (ATCC N° CCL107) was cultivated in monolayer in serum-free chemically defined medium containing Ham's F10/minimal essential medium (1:1 vol/vol), 2 mM L-glutamine, 1% (vol/vol) minimal essential medium vitamins (100×), 1% (vol/vol) minimal essential medium nonessential amino acids (100×), 100 U/ml penicillin, 100 μg/ml streptomycin and 30 nM sodium selenide. Incubation was at 37° C. in a humidified atmosphere. Assays were performed in the logarithmic growth phase at a density of 2.5×10^5 cells/cm^2. Intracellular cAMP synthesis was induced by addition of 5 μM (−) isoproterenol. After 30 min incubation at 37° C. the medium was removed and the cellular amount of cAMP determined using the cAMP-enzyme immunoassay kit of Amersham. The I50 is determined from a dose-response curve in duplicate.
The effect of seven purine-analogs was measured after simultaneous addition with isoproterenol.

cdk1/cyclin B (CDC2), sequence (P06493 whole entry, species assumed): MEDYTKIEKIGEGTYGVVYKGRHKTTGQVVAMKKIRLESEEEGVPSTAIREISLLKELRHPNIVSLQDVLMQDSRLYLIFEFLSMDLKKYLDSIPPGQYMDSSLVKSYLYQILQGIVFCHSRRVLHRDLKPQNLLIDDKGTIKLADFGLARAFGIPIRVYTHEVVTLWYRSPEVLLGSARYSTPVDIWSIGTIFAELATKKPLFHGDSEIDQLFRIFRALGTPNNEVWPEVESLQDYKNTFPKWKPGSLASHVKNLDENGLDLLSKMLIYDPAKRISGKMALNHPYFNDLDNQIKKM
cdk1/cyclin B (CDC2), sequence (P14635 whole entry partner, species assumed): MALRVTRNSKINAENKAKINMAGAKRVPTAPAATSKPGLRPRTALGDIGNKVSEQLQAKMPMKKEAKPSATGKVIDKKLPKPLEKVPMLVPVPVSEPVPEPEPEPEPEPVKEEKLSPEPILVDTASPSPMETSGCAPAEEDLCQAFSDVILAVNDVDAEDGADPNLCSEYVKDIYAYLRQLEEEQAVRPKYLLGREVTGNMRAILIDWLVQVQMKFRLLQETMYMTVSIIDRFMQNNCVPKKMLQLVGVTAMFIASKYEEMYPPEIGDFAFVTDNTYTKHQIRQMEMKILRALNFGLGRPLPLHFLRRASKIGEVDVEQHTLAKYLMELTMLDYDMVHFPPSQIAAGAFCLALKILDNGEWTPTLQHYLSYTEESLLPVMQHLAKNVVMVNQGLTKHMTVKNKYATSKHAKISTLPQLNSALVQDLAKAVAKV

Row | Molecule | IC50 ([1]; Homo sapiens, KG-1) | IC50 ([3]; Homo sapiens, MOLT-3) | IC50 (cdk1/cyclin B (CDC2); cell free system (Table 8)) | IC50 [1] | IC50 [3] | IC50 ([2]; Homo sapiens, Lymphocyte) | IC50 [2] | also measured
1 | CC(C)c1n[nH]c2c(N[C@@H](CO)c3ccccc3)nc(NC[C@H](O)CO)nc12 [Compound 158, 5-(2,3-dihydroxypropylamino)-7-[(R,S)-(1-phenyl-2-hydroxyethyl)amino]-3-isopropylpyrazolo[4,3-d]pyrimidine] |  |  | > 50 µM | 12 ± 1 µM | 13.4 ± 1.4 µM |  | 10 ± 1 µM | 
2 | CC(C)c1n[nH]c2c(SCc3ccccc3)nc(NCCCO)nc12 [Compound 145, 5-(3-hydroxypropylamino)-7-benzylthio-3-isopropylpyrazolo[4,3-d]pyrimidine] | 42 ± 5 µM | 19 ± 2 µM | > 50 µM |  |  | 18 ± 1.6 µM |  | 
3 | CC[C@H](CO)Nc1nc(NCc2ccc(O)cc2)c2[nH]nc(C(C)C)c2n1 |  |  |  |  |  |  |  | Effect: activation (β-adrenergic receptors; simultaneous addition, 30 min): 1.8-fold activation
4 | CC(C)c1n[nH]c2c(NCc3ccccc3)nc(NC(CO)C(C)C)nc12 (stereo not shown) |  |  |  |  |  |  |  | Effect (β-adrenergic receptors; simultaneous addition, 30 min): inhibition; IC50 (β-adrenergic receptors): 25 ± 2 µM
5 | 5-(5-cyanopentyl)-7-[(R,S)-(1-phenyl-2-hydroxyethyl)amino]-9-isopropylpurine [Compound 123] |  |  | 33 µM | 42 ± 4.8 µM | 42.5 ± 6 µM |  | 33 ± 4.4 µM | 
6 | 5-(hexylamino)-7-(1-phenyl-2-hydroxyethylamino)-3-isopropylpyrazolo[4,3-d]pyrimidine [Compound 98] |  |  |  |  |  |  |  | Effect (β-adrenergic receptors; simultaneous addition, 30 min): inhibition; IC50 (β-adrenergic receptors): 8 ± 1 µM

Further molecules by falling IC50 (cdk1/cyclin B (CDC2); cell free system (Table 8)), results first:

Row | IC50 ([1]; Homo sapiens, KG-1) | IC50 ([3]; Homo sapiens, MOLT-3) | IC50 (cdk1/cyclin B (CDC2); cell free system (Table 8)) | IC50 [1] | IC50 [3] | Molecule | IC50 ([2]; Homo sapiens, Lymphocyte) | IC50 [2] | also measured
7 |  |  | 5.8 µM | 9 ± 0.4 µM | 10 ± 1.2 µM | 5-(2-hydroxyethylthio)-671-phenyl-2-hydroxyethylamino-3-isopropylpyrazolo[4,3-d]pyrimidine [Compound 96] |  | 8 ± 0.5 µM | Effectiveness on KG1 compared with normal PBMC [1]: significantly more effective on KG1 than on normal PBMC
8 | 28 ± 1.5 µM | 20 ± 1.3 µM | 5.5 µM |  |  | CC(C)c1n[nH]c2c(NC(CO)c3ccccc3)nc(N3CCOCC3)nc12 (stereo not shown) [Compound 85, 5-(morpholino)-7-(1-phenyl-2-hydroxyethylamino)-3-isopropylpyrazolo[4,3-d]pyrimidine] | 20 ± 7.7 µM |  | 
9 |  |  | 2.6 µM | 10.7 ± 0.3 µM | 13 ± 2.1 µM | 5-(3-hydroxypropylamino)-7-[N-(3,4-dihydroxybenzyl-N-methyl]amino-isopropylpyrazolo[4,3-d]pyrimidine [Compound 42] |  | 5.9 ± 2.9 µM | 
10 | 8 ± 1 µM | 10 ± 1 µM | 1.2 µM |  |  | CCC(CO)Nc1nc(NCc2ccc(O)c(O)c2)c2[nH]nc(C(C)C)c2n1 (stereo not shown) [Compound 47, 5-(1-ethyl-2-hydroxyethylamino)-7-(3,4-dihydroxybenzyl)amino-3-isopropylpyrazolo[4,3-d]pyrimidine] | 3 ± 1.2 µM |  | 
11 |  |  | 1 µM | 15.3 ± 2.4 µM | 14 ± 3.2 µM | 5-(hexylamino)-7-[N-(3,4-dihydroxybenzyl-N-methyl]amino-isopropylpyrazolo[4,3-d]pyrimidine [Compound 41] |  | 10 ± 2 µM | 
12 | 25 ± 4.4 µM | 24 ± 2.2 µM | 1 µM |  |  | CC(C)c1n[nH]c2c(NCc3ccccc3)nc(NCCCO)nc12 [Compound 7, 5-(3-hydroxypropylamino)-7-benzylamino-3-isopropylpyrazolo[4,3-d]pyrimidine] | 9 ± 0.2 µM |  | IC50 (cdk1/cyclin B (CDC2)): 0.2 µM
